From US9617267B2, “Compounds and methods for kinase modulation, and indications therefor” (Plexxikon Inc., priority 2009, dated 2017)
Like-named read-outs stand apart in the source and are kept apart here.

Columns and labels:
[1] = target: CYP3A4(BFC) (Homo sapiens (Human), UniProt P08684); assay: CYP enzyme inhibition, fluorescent substrate BFC
Method in brief: (§1)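 IC50 values come from plotting product fluorescence against compound concentration; inhibition lowers formation of the fluorescent metabolite. Ten-point twofold dilutions in co-factor mix were held 10 minutes at 37 °C before the enzyme reaction, also run at 37 °C.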

[2] = target: CYP2D6 (Homo sapiens (Human), UniProt P10635); assay: CYP enzyme inhibition, fluorescent substrate (AMMC); assay type: in vitro ADME; conditions: read-out: Cyp IC50 2D6
Chain of CYP2D6 (P10635 whole entry): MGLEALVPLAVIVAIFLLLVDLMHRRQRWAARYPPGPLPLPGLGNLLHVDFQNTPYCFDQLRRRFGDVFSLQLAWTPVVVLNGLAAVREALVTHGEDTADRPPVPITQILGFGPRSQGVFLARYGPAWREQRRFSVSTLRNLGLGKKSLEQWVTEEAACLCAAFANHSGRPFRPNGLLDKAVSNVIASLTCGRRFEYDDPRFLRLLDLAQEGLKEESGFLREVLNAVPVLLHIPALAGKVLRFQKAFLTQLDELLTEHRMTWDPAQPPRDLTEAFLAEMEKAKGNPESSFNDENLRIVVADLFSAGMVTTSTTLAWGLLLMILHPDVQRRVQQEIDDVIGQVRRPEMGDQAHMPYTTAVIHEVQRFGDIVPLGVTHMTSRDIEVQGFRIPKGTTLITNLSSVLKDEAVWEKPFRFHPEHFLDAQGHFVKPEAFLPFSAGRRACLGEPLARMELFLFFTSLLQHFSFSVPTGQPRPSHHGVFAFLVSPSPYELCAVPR
Method in brief: (§2)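 Ten-point 1:1 compound dilutions in NADPH-regenerating cofactor mix, pre-incubated 10 min at 37 °C before enzyme/substrate addition: CYP1A2 0.5 pmol with 5 μM CEC, 15 min, 409 ex/460 em; CYP2D6 1.5 pmol with 1.5 μM AMMC, 30 min, 409 ex/530 em. IC50 from fluorescent product vs concentration.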

[3] = target: CYP3A4(BQ) (Homo sapiens (Human), UniProt P08684); assay: CYP enzyme inhibition, fluorescent substrate BQ; conditions: read-out: Cyp IC50 3A4(BQ); CYP3A4, substrate BQ
Chain of CYP3A4(BQ) (P08684 whole entry): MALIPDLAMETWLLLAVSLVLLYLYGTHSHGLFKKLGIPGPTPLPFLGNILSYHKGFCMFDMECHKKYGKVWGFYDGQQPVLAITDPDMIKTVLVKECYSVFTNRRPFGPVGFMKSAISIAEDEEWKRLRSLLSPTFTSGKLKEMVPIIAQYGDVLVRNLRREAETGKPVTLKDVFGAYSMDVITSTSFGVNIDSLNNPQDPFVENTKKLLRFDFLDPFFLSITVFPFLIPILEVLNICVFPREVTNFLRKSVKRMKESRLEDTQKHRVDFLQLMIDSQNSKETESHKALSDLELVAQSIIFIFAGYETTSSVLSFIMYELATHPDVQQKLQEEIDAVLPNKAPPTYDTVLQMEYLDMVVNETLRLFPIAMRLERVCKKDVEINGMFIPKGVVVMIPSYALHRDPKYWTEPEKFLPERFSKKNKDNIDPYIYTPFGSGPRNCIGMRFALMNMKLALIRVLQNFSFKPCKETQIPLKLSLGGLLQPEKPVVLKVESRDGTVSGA
Method in brief: as §1

[4] = target: CYP2C9 (Homo sapiens (Human), UniProt P11712); assay: CYP enzyme inhibition, fluorescent substrate (MFC)
Chain of CYP2C9 (P11712 whole entry): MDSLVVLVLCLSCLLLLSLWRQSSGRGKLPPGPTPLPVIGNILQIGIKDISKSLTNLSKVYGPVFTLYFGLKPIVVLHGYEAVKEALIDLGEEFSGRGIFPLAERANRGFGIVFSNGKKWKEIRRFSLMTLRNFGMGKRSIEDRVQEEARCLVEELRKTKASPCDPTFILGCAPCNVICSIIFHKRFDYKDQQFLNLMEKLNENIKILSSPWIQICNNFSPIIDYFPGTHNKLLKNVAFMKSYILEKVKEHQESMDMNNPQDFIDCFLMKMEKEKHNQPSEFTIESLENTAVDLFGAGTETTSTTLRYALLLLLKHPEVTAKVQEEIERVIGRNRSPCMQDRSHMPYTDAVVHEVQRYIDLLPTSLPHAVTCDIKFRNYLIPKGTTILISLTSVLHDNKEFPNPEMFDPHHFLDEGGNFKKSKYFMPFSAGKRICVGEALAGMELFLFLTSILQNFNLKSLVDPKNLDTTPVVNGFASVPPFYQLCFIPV
Method in brief: as §1

[5] = target: B-Raf V600E (Homo sapiens (Human), UniProt P15056, V600E); assay: B-Raf V600E kinase activity biochemical assay (AlphaScreen, biotin-MEK1 phosphorylation); conditions: for IC50: B-Raf V600E; for Biochemical activity ratio V600E/C: ratio of IC50 B-Raf V600E / c-Raf-1
Chain of B-Raf V600E (P15056 whole entry V600E): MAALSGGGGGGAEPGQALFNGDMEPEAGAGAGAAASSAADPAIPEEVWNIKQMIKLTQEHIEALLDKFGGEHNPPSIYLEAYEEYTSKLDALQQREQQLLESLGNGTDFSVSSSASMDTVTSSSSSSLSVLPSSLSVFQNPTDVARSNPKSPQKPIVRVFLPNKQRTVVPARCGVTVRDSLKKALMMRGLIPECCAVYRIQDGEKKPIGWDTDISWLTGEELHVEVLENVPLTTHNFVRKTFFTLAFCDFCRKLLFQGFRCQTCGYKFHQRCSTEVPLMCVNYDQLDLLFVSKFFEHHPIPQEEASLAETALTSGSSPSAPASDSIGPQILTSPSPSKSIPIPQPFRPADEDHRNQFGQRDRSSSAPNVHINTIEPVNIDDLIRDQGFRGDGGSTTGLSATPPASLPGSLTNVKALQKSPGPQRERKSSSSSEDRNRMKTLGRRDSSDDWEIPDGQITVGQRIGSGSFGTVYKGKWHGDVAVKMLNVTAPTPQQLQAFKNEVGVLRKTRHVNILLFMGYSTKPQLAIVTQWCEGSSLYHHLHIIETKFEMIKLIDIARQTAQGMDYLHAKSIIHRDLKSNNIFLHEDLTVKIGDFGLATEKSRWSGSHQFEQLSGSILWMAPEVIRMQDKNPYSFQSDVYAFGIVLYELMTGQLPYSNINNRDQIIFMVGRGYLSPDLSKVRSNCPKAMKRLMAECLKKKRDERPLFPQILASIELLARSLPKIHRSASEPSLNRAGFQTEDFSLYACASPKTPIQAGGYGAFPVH
Method in brief: (§3)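 Biotin-MEK1 phosphorylation measured after 45 min kinase reaction at RT with 100 μM ATP final; compounds tested at 8 points from 0.1 mM DMSO stock.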

[6] = Relative solubility by turbidity threshold concentration in aqueous buffers (pH 1.5, 4.5, 6.8, 7.4); assay type: physicochemical; conditions: for turbidity threshold (L, M, H) 1.4: pH 1.4 [sic] (method: SGF pH 1.5); for turbidity threshold (L, M, H) 4.5: pH 4.5 (SIF); for turbidity threshold (L, M, H) 6.8: pH 6.8 (SIF); for turbidity threshold (L, M, H) 7.4: pH 7.4 (HEPES)
Method in brief: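 Solubility class (high >250 μM, moderate 31.3–250 μM, low <31.3 μM) comes from the concentration where absorbance reaches a 0.01 threshold, averaged across 490/535/650 nm. Samples were compound dilutions from DMSO stock, 1 μL into 99 μL buffer at pH 1.5, 4.5, 6.8 or 7.4.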

[7] = target: CYP1A2 (Homo sapiens (Human), UniProt P05177); assay: CYP enzyme inhibition, fluorescent substrate (CEC)
Chain of CYP1A2 (P05177 whole entry): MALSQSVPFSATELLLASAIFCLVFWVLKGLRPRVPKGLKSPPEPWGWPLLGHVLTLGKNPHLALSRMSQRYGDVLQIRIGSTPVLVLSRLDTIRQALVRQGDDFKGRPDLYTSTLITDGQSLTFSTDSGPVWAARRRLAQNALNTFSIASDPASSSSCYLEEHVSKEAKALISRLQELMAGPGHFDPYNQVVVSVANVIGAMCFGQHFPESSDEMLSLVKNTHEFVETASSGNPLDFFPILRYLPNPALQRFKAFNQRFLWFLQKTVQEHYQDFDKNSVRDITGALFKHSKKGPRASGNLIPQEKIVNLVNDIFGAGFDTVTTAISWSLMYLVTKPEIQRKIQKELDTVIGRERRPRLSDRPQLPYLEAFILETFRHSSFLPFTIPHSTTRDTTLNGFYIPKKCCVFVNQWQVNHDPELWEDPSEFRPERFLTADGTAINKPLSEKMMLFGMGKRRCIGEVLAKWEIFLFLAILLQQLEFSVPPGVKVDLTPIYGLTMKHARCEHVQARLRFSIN
Method in brief: as §2

[8] = tested on: B-Raf; assay: B-Raf kinase activity biochemical assay (AlphaScreen, biotin-MEK1 phosphorylation); conditions: for Biochemical activity ratio B/V600E: ratio of IC50 B-Raf / B-Raf V600E; for Biochemical activity ratio B/C: ratio of IC50 B-Raf / c-Raf-1
Method in brief: as §3

[9] = target: B-Raf (Homo sapiens (Human), UniProt P15056); assay: as above; conditions: B-Raf
Chain of B-Raf (Homo sapiens (Human), UniProt P15056) (P15056 whole entry): as the sequence (P15056 whole entry V600E) above, with E600V counted along it
Method in brief: as §3

[10] = target: CYP2C19 (Homo sapiens (Human), UniProt P33261); assay: CYP enzyme inhibition, fluorescent substrate (CEC)
Chain of CYP2C19 (P33261 whole entry): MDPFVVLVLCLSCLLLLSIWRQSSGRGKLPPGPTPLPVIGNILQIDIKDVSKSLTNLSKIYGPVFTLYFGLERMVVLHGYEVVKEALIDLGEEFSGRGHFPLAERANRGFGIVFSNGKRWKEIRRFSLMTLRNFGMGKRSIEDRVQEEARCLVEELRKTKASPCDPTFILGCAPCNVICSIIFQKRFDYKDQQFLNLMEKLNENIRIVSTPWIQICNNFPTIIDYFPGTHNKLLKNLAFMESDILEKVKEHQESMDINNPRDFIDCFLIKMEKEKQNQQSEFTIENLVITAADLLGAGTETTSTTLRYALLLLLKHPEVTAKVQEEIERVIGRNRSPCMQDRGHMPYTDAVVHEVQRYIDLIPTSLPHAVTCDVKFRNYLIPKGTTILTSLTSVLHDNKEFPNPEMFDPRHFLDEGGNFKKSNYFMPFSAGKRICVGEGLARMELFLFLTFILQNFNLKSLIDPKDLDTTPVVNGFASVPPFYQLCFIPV
Method in brief: as §1

[11] = target: c-Raf-1 (Homo sapiens, UniProt P04049); assay: c-Raf-1 kinase activity biochemical assay (AlphaScreen, biotin-MEK1 phosphorylation)
Chain of c-Raf-1 (P04049 whole entry, looked up): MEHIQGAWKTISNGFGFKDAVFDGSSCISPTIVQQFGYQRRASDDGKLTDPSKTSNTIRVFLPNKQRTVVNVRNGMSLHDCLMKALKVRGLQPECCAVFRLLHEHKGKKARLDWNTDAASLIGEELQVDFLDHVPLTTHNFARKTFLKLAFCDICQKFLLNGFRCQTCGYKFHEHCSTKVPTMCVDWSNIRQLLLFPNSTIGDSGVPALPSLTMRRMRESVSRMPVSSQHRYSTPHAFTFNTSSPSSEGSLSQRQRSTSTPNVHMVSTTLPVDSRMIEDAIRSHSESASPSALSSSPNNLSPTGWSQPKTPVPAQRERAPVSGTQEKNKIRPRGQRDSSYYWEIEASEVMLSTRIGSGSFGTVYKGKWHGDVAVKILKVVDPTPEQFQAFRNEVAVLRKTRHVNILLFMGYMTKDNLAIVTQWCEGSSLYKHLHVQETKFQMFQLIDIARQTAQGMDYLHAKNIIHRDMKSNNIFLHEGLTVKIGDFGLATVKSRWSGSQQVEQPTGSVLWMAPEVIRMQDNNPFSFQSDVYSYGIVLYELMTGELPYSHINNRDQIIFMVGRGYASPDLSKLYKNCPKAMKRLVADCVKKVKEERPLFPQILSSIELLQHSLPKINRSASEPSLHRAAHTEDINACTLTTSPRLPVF
Method in brief: as §3

[12] = read-out: Cyp IC50 3A4(BFC), CYP3A4, substrate BFC
[13] = read-out: Cyp IC50 2C9, CYP2C9, substrate MFC
[14] = read-out: Cyp IC50 1A2, CYP1A2, substrate CEC
[15] = read-out: Cyp IC50 2C19, CYP2C19, substrate CEC

Chain of CYP3A4(BFC) (P08684 whole entry): as the sequence (P08684 whole entry) above

Structure (SMILES) | IC50 [1, 12] [µM] | IC50 [2] [µM] | IC50 [3] [µM] | IC50 [4, 13] [µM] | IC50 [5] [µM] | Biochemical activity ratio V600E/C [5] | turbidity threshold (L, M, H) 1.4 [6] | turbidity threshold (L, M, H) 4.5 [6] | turbidity threshold (L, M, H) 6.8 [6] | turbidity threshold (L, M, H) 7.4 [6] | IC50 [7, 14] [µM] | Biochemical activity ratio B/V600E [8] | Biochemical activity ratio B/C [8] | IC50 [9] [µM] | IC50 [10, 15] [µM] | IC50 [11] [µM] | IC50 [1] [µM] | IC50 [4] [µM] | IC50 ([7]; human, 15 min) [µM] | IC50 [10] [µM]
O=C(c1c(F)ccc(NS(=O)(=O)c2ccc(C(F)(F)F)cc2)c1F)c1c[nH]c2ncnc(NC3COC3)c12 [P-1050, N-{2,4-Difluoro-3-[4-(oxetan-3-ylamino)-7H-pyrrolo[2,3-d]pyrimidine-5-carbonyl]-phenyl}-4-trifluoromethyl-benzenesulfonamide] | > 10 | > 10 | > 10 | > 10 | < 0.1 | >10 | H (high solubility if the threshold concentration is >250 μm) | M (moderate solubility if the threshold concentration is 31.3 μM to 250 μM) | M (moderate solubility if the threshold concentration is 31.3 μM to 250 μM) | M (moderate solubility if the threshold concentration is 31.3 μM to 250 μM) | > 10 | 0.1-10 | >10 | < 0.1 | > 10 | < 0.1 | – | – | – | –
O=C(c1c(F)ccc(NS(=O)(=O)c2ccc(C(F)(F)F)cc2)c1F)c1c[nH]c2ncnc(NCC3CC3)c12 [P-1052, N-{3-[4-(Cyclopropylmethyl-amino)-7H-pyrrolo[2,3-d]pyrimidine-5-carbonyl]-2,4-difluoro-phenyl}-4-trifluoromethyl-benzenesulfonamide] | – | > 10 | > 10 | < 5 | < 0.1 | >10 | L (low solubility if the threshold concentration is <31.3 μM) | L (low solubility if the threshold concentration is <31.3 μM) | L (low solubility if the threshold concentration is <31.3 μM) | L (low solubility if the threshold concentration is <31.3 μM) | > 10 | 0.1-10 | >10 | < 0.1 | < 5 | < 0.1 | 5 to 10 | – | – | –
O=C(c1c(F)ccc(NS(=O)(=O)c2ccc(C(F)(F)F)cc2)c1F)c1c[nH]c2ncnc(OCC3CC3)c12 [P-1053, N-[3-(4-Cyclopropylmethoxy-7H-pyrrolo[2,3-d]pyrimidine-5-carbonyl)-2,4-difluoro-phenyl]-4-trifluoromethyl-benzenesulfonamide] | > 10 | > 10 | > 10 | – | > 0.1 | >10 | L (low solubility if the threshold concentration is <31.3 μM) | L (low solubility if the threshold concentration is <31.3 μM) | L (low solubility if the threshold concentration is <31.3 μM) | L (low solubility if the threshold concentration is <31.3 μM) | – | 0.1-10 | 0.1-10 | < 0.1 | – | < 0.1 | – | 5 to 10 | > 10 | 5 to 10
O=C(c1c(F)ccc(NS(=O)(=O)c2ccc(C(F)(F)F)cc2)c1F)c1c[nH]c2ncnc(NC3CCOC3)c12 (centres unmarked) [P-1054, N-{2,4-Difluoro-3-[4-(tetrahydro-furan-3-ylamino)-7H-pyrrolo[2,3-d]pyrimidine-5-carbonyl]-phenyl}-4-trifluoromethyl-benzenesulfonamide] | > 10 | > 10 | > 10 | – | < 0.1 | >10 | M (moderate solubility if the threshold concentration is 31.3 μM to 250 μM) | L (low solubility if the threshold concentration is <31.3 μM) | L (low solubility if the threshold concentration is <31.3 μM) | L (low solubility if the threshold concentration is <31.3 μM) | – | 0.1-10 | 0.1-10 | < 0.1 | > 10 | < 0.1 | – | 5 to 10 | > 10 | –
CCCc1ccc(S(=O)(=O)Nc2ccc(F)c(C(=O)c3c[nH]c4ncnc(NC(C)C)c34)c2F)cc1 [P-1055, N-[2,4-Difluoro-3-(4-isopropylamino-7H-pyrrolo[2,3-d]pyrimidine-5-carbonyl)-phenyl]-4-propyl-benzenesulfonamide] | – | > 10 | > 10 | – | > 0.1 | >10 | L (low solubility if the threshold concentration is <31.3 μM) | L (low solubility if the threshold concentration is <31.3 μM) | L (low solubility if the threshold concentration is <31.3 μM) | L (low solubility if the threshold concentration is <31.3 μM) | – | 0.1-10 | 0.1-10 | < 0.1 | < 5 | < 0.1 | 5 to 10 | 5 to 10 | > 10 | –
CCCc1ccc(S(=O)(=O)Nc2ccc(F)c(C(=O)c3c[nH]c4ncnc(NC5COC5)c34)c2F)cc1 [P-1056, N-{2,4-Difluoro-3-[4-(oxetan-3-ylamino)-7H-pyrrolo[2,3-d]pyrimidine-5-carbonyl]-phenyl}-4-propyl-benzenesulfonamide] | > 10 | > 10 | > 10 | > 10 | > 0.1 | >10 | M (moderate solubility if the threshold concentration is 31.3 μM to 250 μM) | L (low solubility if the threshold concentration is <31.3 μM) | L (low solubility if the threshold concentration is <31.3 μM) | L (low solubility if the threshold concentration is <31.3 μM) | – | 0.1-10 | >10 | < 0.1 | > 10 | < 0.1 | – | – | > 10 | –
CN1CCC(Nc2ncnc3[nH]cc(C(=O)c4c(F)ccc(NS(=O)(=O)c5ccc(C(F)(F)F)cc5)c4F)c23)CC1 [P-1057, N-{2,4-Difluoro-3-[4-(1-methyl-piperidin-4-ylamino)-7H-pyrrolo[2,3-d]pyrimidine-5-carbonyl]-phenyl}-4-trifluoromethyl-benzenesulfonamide] | > 10 | > 10 | > 10 | > 10 | > 0.1 | >10 | H (high solubility if the threshold concentration is >250 μm) | H (high solubility if the threshold concentration is >250 μm) | M (moderate solubility if the threshold concentration is 31.3 μM to 250 μM) | M (moderate solubility if the threshold concentration is 31.3 μM to 250 μM) | – | 0.1-10 | 0.1-10 | < 0.1 | > 10 | < 0.1 | – | – | > 10 | –
COCCNc1ncnc2[nH]cc(C(=O)c3c(F)ccc(NS(=O)(=O)c4ccc(C(F)(F)F)cc4)c3F)c12 [P-1058, N-{2,4-Difluoro-3-[4-(2-methoxy-ethylamino)-7H-pyrrolo[2,3-d]pyrimidine-5-carbonyl]-phenyl}-4-trifluoromethyl-benzenesulfonamide] | – | > 10 | > 10 | > 10 | > 0.1 | >10 | M (moderate solubility if the threshold concentration is 31.3 μM to 250 μM) | L (low solubility if the threshold concentration is <31.3 μM) | L (low solubility if the threshold concentration is <31.3 μM) | L (low solubility if the threshold concentration is <31.3 μM) | – | 0.1-10 | 0.1-10 | < 0.1 | > 10 | < 0.1 | 5 to 10 | – | > 10 | –
